Assay results reported in paper PMC10364322, “Evaluation of chronic drug-induced electrophysiological and cytotoxic effects using human-induced pluripotent stem cell-derived cardiomyocytes (hiPSC-CMs)” (Frontiers in Pharmacology, 2023).
Where two headings read alike, the source gives them in different places.

Tests used:
[1] = system: hiPSC-CMs (iCell-Cardiomyocytes^2)
Procedure: (§1) Cells were seeded according to the instructions of the cell provider, in fibronectin-coated 48-well MEA plates (Axion Cytoview Plates, M768-tMEA-48B) at a density suited to form a monolayer (i.e., 50 K/well) and maintained in culture in a stage incubator (37°C, 5% CO2).
(§2) At least 4 h before the beginning of the baseline measurements, a full medium exchange was performed (to a final volume of 400 µL per well). Neat compounds were dissolved in 100% DMSO at a stock concentration 1000-fold the highest target concentration. […] Afterwards, these stock solutions were diluted with Maintenance medium (CDi), to 10-fold the intended concentration. The final DMSO concentration in test solutions and vehicle control was 0.1%.
(§3) Spontaneous electrical activity was recorded in hiPSC-CMs monolayers as field potentials using the Maestro Pro MEA instrument (Axion Biosystems, Atlanta, GA, United States), which allows the maintenance of accurate temperature and CO2 levels (37°C, 5% CO2). After the plate was placed in the Maestro Pro and allowed to equilibrate for about 10 min, baseline acquisition of field potential and impedance signals was initiated and lasted for 5 min each. […] As impedance measures resistance of an applied alternating current through the hiPSC-CMs monolayer, a reduction in the attachment of hiPSC-CMs to the bottom of the well due to cell death or changes in the monolayer morphology, causes a drop in the impedance signal.
The potential presence of various arrhythmic events was evaluated and noted during the data analysis.
(§4) After the acquisition of all timepoint measurements, raw data were loaded into the data analysis software Axion Cardiac Analysis Tool (V.3.2.3). […] A.csv file containing information on the FP parameters per well, per time point, was then generated and used as input to the in-house data management system (SPEcII v.3.4, Unlimit-IT, Geel, Belgium), where descriptive statistics were calculated. Summary values at different time points after compound addition are expressed as percent change from baseline and shown as mean ± standard deviation (SD).
(§5) The nonparametric Wilcoxon-Mann Whitney Test was used to compare the percent change from the baseline (Δ%) value between the group treated with the compound at a given concentration and the group treated with the DMSO at each matching time points. A two-sided test at 5% significance level was considered. […] To assess the physiological relevance of changes, a tolerance interval of DMSO experiments was calculated at each time point, for each parameter. […] TIs indicate an interval where, with a certain confidence level (1- α = 0.95), a specified proportion (p = 0.80) of percent change for DMSO data falls. The lower and upper limits based on the TI values were used as cut-offs for the interpretation of the changes. For the cytotoxicity assays, measurements of fluorescence (after background fluorescence subtraction) from wells treated with the compounds were normalized by the average value of vehicle experiments (DMSO 0.1%) to obtain a DMSO-corrected, delta/delta percent change. Experiments from each condition, as delta/delta percent, were averaged and expressed as mean ± SD. Statistical analysis was performed using a non-parametric test (Kruskal-Wallis) and each treatment condition was compared to the relative DMSO 0.1%. Differences were considered statistically significant when the p-value was smaller than 0.05.

[2] = free therapeutic Cmax in humans; ref FDA-approved drug packages, PharmaPendium; cited from earlier work
[3] = system: hiPSC-CMs (iCell-Cardiomyocytes^2); assay: MEA impedance (cytotoxicity readout) in hiPSC-CMs
Procedure: as §1, §2, §3, §4, §5

[4] = all concentrations tested, up to 96 h

BR (beating rate), % change from baseline ([1]; 3 µM, 72h): -10±2%
FPD (field-potential duration), % change from baseline ([1]; 3 µM, 72h): 16.3±2.2%
BR (beating rate), % change from baseline ([1]; 3 µM, 96h): -18±1%
FPD (field-potential duration), % change from baseline ([1]; 3 µM, 96h): 25.2±3.5%
BR (beating rate), % change from baseline ([1]; 3 µM, 2h): 2±2%
FPD (field-potential duration), % change from baseline ([1]; 3 µM, 2h): 2.5±1.6%
BR (beating rate), % change from baseline ([1]; 3 µM, 24h): 1±2%
FPD (field-potential duration), % change from baseline ([1]; 3 µM, 24h): 6.2±3%
BR (beating rate), % change from baseline ([1]; 3 µM, 48h): -7±1%
FPD (field-potential duration), % change from baseline ([1]; 3 µM, 48h): 13.2±2.8%
BR (beating rate), % change from baseline ([1]; 10 µM, 2h): 3±2%
FPD (field-potential duration), % change from baseline ([1]; 10 µM, 2h): 4±7.9%
BR (beating rate), % change from baseline ([1]; 10 µM, 24h): 2±3%
FPD (field-potential duration), % change from baseline ([1]; 10 µM, 24h): 5.8±4.5%
BR (beating rate), % change from baseline ([1]; 10 µM, 48h): -8±3%
FPD (field-potential duration), % change from baseline ([1]; 10 µM, 48h): 12.2±6.3%
BR (beating rate), % change from baseline ([1]; 10 µM, 72h): -9±2%
FPD (field-potential duration), % change from baseline ([1]; 10 µM, 72h): 14.6±6.7%
BR (beating rate), % change from baseline ([1]; 10 µM, 96h): -17±3%
FPD (field-potential duration), % change from baseline ([1]; 10 µM, 96h): 23.3±7.8%
BR (beating rate), % change from baseline ([1]; 30 µM, 2h): 3±2%
FPD (field-potential duration), % change from baseline ([1]; 30 µM, 2h): 0.9±1.8%
BR (beating rate), % change from baseline ([1]; 30 µM, 24h): 0±4%
FPD (field-potential duration), % change from baseline ([1]; 30 µM, 24h): 6.7±3.9%
BR (beating rate), % change from baseline ([1]; 30 µM, 48h): -8±2%
FPD (field-potential duration), % change from baseline ([1]; 30 µM, 48h): 13.5±5.1%
BR (beating rate), % change from baseline ([1]; 30 µM, 72h): -9±3%
FPD (field-potential duration), % change from baseline ([1]; 30 µM, 72h): 15.4±5%
BR (beating rate), % change from baseline ([1]; 30 µM, 96h): -18±4%
FPD (field-potential duration), % change from baseline ([1]; 30 µM, 96h): 23.3±4.7%
BR (beating rate), % change from baseline ([1]; 100 µM, 2h): 2±3%
FPD (field-potential duration), % change from baseline ([1]; 100 µM, 2h): 0.2±2.9%
BR (beating rate), % change from baseline ([1]; 100 µM, 24h): -2±3%
FPD (field-potential duration), % change from baseline ([1]; 100 µM, 24h): 7.2±3.6%
BR (beating rate), % change from baseline ([1]; 100 µM, 48h): -7±2%
FPD (field-potential duration), % change from baseline ([1]; 100 µM, 48h): 13.4±3%
BR (beating rate), % change from baseline ([1]; 100 µM, 72h): -10±3%
FPD (field-potential duration), % change from baseline ([1]; 100 µM, 72h): 17.6±2%
BR (beating rate), % change from baseline ([1]; 100 µM, 96h): -16±4%
FPD (field-potential duration), % change from baseline ([1]; 100 µM, 96h): 23.9±1.7%
SMILES: CC(=O)Oc1ccccc1C(=O)O [Aspirin]
cessation of beating, flat T-wave or arrhythmic-like events [1, 4]: no cessation of beating, flat T-wave or arrhythmic-like events were detected
Free Cmax [2]: 11.1 µM
Imp (impedance), % change from baseline ([3]; 3 µM, 72h): -2±2%
Imp (impedance), % change from baseline ([3]; 3 µM, 96h): -7±3%
Imp (impedance), % change from baseline ([3]; 3 µM, 2h): 5±3%
Imp (impedance), % change from baseline ([3]; 3 µM, 24h): -9±4%
Imp (impedance), % change from baseline ([3]; 3 µM, 48h): -10±2%
Imp (impedance), % change from baseline ([3]; 10 µM, 2h): 6±2%
Imp (impedance), % change from baseline ([3]; 10 µM, 24h): -8±3%
Imp (impedance), % change from baseline ([3]; 10 µM, 48h): -7±3%
Imp (impedance), % change from baseline ([3]; 10 µM, 72h): -4±5%
Imp (impedance), % change from baseline ([3]; 10 µM, 96h): -6±6%
Imp (impedance), % change from baseline ([3]; 30 µM, 2h): 6±4%
Imp (impedance), % change from baseline ([3]; 30 µM, 24h): -4±3%
Imp (impedance), % change from baseline ([3]; 30 µM, 48h): -8±3%
Imp (impedance), % change from baseline ([3]; 30 µM, 72h): -1±2%
Imp (impedance), % change from baseline ([3]; 30 µM, 96h): -3±2%
Imp (impedance), % change from baseline ([3]; 100 µM, 2h): 8±1%
Imp (impedance), % change from baseline ([3]; 100 µM, 24h): -7±4%
Imp (impedance), % change from baseline ([3]; 100 µM, 48h): -11±3%
Imp (impedance), % change from baseline ([3]; 100 µM, 72h): -2±6%
Imp (impedance), % change from baseline ([3]; 100 µM, 96h): -6±7%
effect on impedance [3, 4]: did not have a significant effect on impedance
